Publication PMC3412733, “Identification and recombinant expression of anandamide hydrolyzing enzyme from Dictyostelium discoideum” (BMC Microbiology, 2012)

Target: T1, MBP-FAAH (Dictyostelium FAAH) (Dictyostelium discoideum, UniProt Q8MMR8)
T1 construct: gene DDB_G0275967; full length (637 residues) with N-terminal MBP and 6xHis tags kept, expressed in E. coli BL21(DE3) (pCWMalET), amylose resin purified
T1 sequence (Q8MMR8 1-637): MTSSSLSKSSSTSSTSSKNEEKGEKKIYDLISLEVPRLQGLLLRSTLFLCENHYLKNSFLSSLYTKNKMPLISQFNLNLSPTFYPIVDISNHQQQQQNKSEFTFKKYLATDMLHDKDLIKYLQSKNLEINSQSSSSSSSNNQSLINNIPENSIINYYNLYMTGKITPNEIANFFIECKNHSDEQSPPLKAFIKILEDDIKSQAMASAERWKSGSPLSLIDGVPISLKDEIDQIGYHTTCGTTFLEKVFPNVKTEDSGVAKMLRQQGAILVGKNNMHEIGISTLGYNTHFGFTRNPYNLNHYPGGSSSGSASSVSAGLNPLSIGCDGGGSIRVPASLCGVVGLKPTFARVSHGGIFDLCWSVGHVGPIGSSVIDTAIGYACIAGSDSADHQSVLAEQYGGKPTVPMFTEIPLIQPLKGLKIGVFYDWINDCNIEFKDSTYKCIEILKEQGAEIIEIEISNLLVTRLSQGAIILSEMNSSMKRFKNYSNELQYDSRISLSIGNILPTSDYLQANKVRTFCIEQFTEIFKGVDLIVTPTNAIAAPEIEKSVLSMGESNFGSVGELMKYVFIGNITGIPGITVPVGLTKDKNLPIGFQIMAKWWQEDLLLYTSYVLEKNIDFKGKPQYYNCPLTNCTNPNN
Test: CE-ES-MS of product arachidonic acid
Format: biochemical
Details: pH 9.0, 50 mM NaCl, 10% DMSO, 37°C, 30 min

SMILES: CCCCC/C=C\C/C=C\C/C=C\C/C=C\CCCC(=O)NCCO [anandamide]
- CE-ES-MS of product arachidonic acid: hydrolyzed anandamide to free arachidonic acid and ethanolamine as determined by CE-ES-MS
